Broadly, the IC50 is the point on the concentration scale where inhibition reaches its midpoint.

The target of one test is T1, c-kit mutant D816V (Homo sapiens, UniProt P10721, D816V/DEL694-753).
T1 construct: residues 551-934, kinase insertion domain residues 694-753 deleted; 6x-histidine (N); made in house; host or cells: E. coli Arctic Express (DE3) RIL (Stratagene)
The experiment in a line: c-Kit mutant D816V biochemical assay, AlphaScreen. The settings on record: c-kit D816V biochemical inhibitory activity; read-out: Biochemical activity (IC50 μM) Kit D816V. The procedure, abridged:
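Eight-point, threefold compound series incubated 30 min at room temperature with E. coli-produced D816V kinase, 10 μM ATP, Mg2+/Mn2+ HEPES buffer pH 7.2 and 5% DMSO. After EDTA stop, streptavidin and anti-phosphotyrosine (PY20) AlphaScreen beads gave the read-out, and IC50 was fitted from the concentration–signal curve.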

Another test addresses T2, c-kit kinase (Homo sapiens, UniProt P10721).
T2 construct: The c-kit (or kinase domain thereof) is an active kinase in AlphaScreen; poly-Histidine tag (in-house protein only) (cleaved yes); host or cells: E. coli BL21(DE3)RIL, co-expressed with PTP1B
The experiment in a line: c-Kit biochemical assay, AlphaScreen, 10 μM ATP. The settings on record: c-kit biochemical inhibitory activity; read-out: Biochemical activity (IC50 μM) Kit. The procedure, abridged:
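His-tagged c-Kit expressed in E. coli with co-expressed PTP1B (dephosphorylated), tag removed; 0.1 ng per reaction with biotinylated-peptide substrate in 50 mM HEPES pH 7.2, 5 mM MgCl2, 5 mM MnCl2, 5% DMSO, 10 μM ATP, 1 h at room temperature. Phosphorylation detected by AlphaScreen (streptavidin donor, PY20 acceptor beads); IC50 from 8-point 1:3 dilution series.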
A general note: In Alpha technology, singlet oxygen from a donor bead excites a nearby acceptor bead.

T2 sequence (P10721 26-976): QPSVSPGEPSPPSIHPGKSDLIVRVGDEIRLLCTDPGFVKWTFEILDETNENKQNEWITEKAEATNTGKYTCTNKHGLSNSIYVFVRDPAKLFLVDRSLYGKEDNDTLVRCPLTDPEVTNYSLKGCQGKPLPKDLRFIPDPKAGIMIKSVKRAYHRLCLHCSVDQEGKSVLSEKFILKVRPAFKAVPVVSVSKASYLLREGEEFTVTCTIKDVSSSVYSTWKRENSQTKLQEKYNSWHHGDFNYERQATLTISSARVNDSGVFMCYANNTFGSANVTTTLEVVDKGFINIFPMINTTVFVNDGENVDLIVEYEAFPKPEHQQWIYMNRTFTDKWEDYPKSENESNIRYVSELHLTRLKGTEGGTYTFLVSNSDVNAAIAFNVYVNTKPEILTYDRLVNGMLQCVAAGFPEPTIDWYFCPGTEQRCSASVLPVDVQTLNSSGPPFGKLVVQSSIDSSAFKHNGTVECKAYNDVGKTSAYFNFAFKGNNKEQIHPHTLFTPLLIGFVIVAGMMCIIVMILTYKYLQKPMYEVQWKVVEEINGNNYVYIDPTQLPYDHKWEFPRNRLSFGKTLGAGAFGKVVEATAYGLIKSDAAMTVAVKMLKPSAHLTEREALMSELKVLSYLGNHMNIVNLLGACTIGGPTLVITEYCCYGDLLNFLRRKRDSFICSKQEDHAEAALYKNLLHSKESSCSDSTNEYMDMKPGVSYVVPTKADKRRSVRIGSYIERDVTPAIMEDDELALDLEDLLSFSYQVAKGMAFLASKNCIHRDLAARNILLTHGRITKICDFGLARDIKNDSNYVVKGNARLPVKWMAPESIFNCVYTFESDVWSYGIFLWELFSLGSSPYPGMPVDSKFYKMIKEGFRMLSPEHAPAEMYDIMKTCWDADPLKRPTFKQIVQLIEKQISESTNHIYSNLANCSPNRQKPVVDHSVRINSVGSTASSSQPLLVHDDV
T1 sequence (P10721 with tags, fused parts or gaps DEL694-753/D816V): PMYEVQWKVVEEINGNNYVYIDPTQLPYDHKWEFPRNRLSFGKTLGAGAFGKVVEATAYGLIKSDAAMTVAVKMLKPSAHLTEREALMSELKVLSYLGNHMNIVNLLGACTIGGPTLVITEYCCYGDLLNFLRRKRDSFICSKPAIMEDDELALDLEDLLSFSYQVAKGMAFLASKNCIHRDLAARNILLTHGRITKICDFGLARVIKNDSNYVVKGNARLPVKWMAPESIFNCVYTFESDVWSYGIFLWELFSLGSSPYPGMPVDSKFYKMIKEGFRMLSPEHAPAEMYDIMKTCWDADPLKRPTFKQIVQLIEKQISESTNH

Turning to `Cc1n[nH]c2ncnc(-c3ccc(NS(=O)(=O)c4ccc(C(F)(F)F)cc4)cc3)c12` [P-0438, N-[4-(3-methyl-1H-pyrazolo[3,4-d]pyrimidin-4-yl)phenyl]-4-(trifluoromethyl)benzenesulfonamide], the figures for the IC50 at c-kit mutant D816V and on c-kit kinase were 0.0001 to 1 µM and 1 to 10 µM, respectively.

On to `Cc1n[nH]c2ncnc(-c3ccc(NS(=O)(=O)c4ccc(F)cc4)cc3)c12` [P-0439, 4-fluoro-N-[4-(3-methyl-1H-pyrazolo[3,4-d]pyrimidin-4-yl)phenyl]benzenesulfonamide], for which the IC50 at c-kit mutant D816V lay in the range of 0.0001 to 1 µM; at c-kit kinase it was 1 to 10 µM.

As to `Cc1n[nH]c2ncnc(-c3ccc(NS(=O)(=O)c4cccc(F)c4)cc3)c12` [P-0440, 3-fluoro-N-[4-(3-methyl-1H-pyrazolo[3,4-d]pyrimidin-4-yl)phenyl]benzenesulfonamide], the concentration for half-maximal inhibition (IC50) at c-kit mutant D816V was 0.0001 to 1 µM; at c-kit kinase, 1 to 10 µM.

`Cc1n[nH]c2ncnc(-c3ccc(NS(=O)(=O)c4ccc(C(F)(F)F)nc4)cc3)c12` [P-0441, N-[4-(3-methyl-1H-pyrazolo[3,4-d]pyrimidin-4-yl)phenyl]-6-(trifluoromethyl)pyridine-3-sulfonamide]: the IC50 at c-kit mutant D816V was 0.0001 to 1 µM; at c-kit kinase, 10 to 200 µM.

Turning to `CCc1ccc(S(=O)(=O)Nc2ccc(-c3ncnc4[nH]nc(C)c34)cc2)cc1` [P-0442, 4-ethyl-N-[4-(3-methyl-1H-pyrazolo[3,4-d]pyrimidin-4-yl)phenyl]benzenesulfonamide], the 50% inhibitory concentration (IC50) on c-kit mutant D816V was in the range of 0.0001 to 1 µM; at c-kit kinase, 1 to 10 µM.

Turning to `Cc1n[nH]c2ncnc(-c3ccc(NS(=O)(=O)c4cccc(Cl)c4)cc3)c12` [P-0443, 3-chloro-N-[4-(3-methyl-1H-pyrazolo[3,4-d]pyrimidin-4-yl)phenyl]benzenesulfonamide], the concentration for half-maximal inhibition (IC50) lay in the range of 0.0001 to 1 µM on c-kit mutant D816V and 1 to 10 µM at c-kit kinase.

As to `COc1ccc(S(=O)(=O)Nc2ccc(-c3ncnc4[nH]nc(C)c34)cc2)cc1` [P-0444, 4-methoxy-N-[4-(3-methyl-1H-pyrazolo[3,4-d]pyrimidin-4-yl)phenyl]benzenesulfonamide], the IC50 lay within 0.0001 to 1 µM on c-kit mutant D816V and 1 to 10 µM at c-kit kinase.

Turning to `Cc1n[nH]c2ncnc(-c3ccc(NS(=O)(=O)c4ccc(Cl)cc4)cc3)c12` [P-0445, 4-chloro-N-[4-(3-methyl-1H-pyrazolo[3,4-d]pyrimidin-4-yl)phenyl]benzenesulfonamide], the IC50 fell in the range of 0.0001 to 1 µM at c-kit mutant D816V and 1 to 10 µM on c-kit kinase.

As for `Cc1ccc(S(=O)(=O)Nc2ccc(-c3ncnc4[nH]nc(C)c34)cc2)cc1` [P-0447, 4-methyl-N-[4-(3-methyl-1H-pyrazolo[3,4-d]pyrimidin-4-yl)phenyl]benzenesulfonamide], the IC50 at c-kit mutant D816V was 0.0001 to 1 µM; on c-kit kinase it was 1 to 10 µM.

With `Cc1ccc(S(=O)(=O)Nc2ccc(-c3ncnc4[nH]cc(C)c34)cc2)cc1` [P-0448, 4-methyl-N-[4-(5-methyl-7H-pyrrolo[2,3-d]pyrimidin-4-yl)phenyl]benzenesulfonamide], the IC50 on c-kit mutant D816V is 0.0001 to 1 µM; at c-kit kinase it was 1 to 10 µM.

Take `Cc1ccc(S(=O)(=O)Nc2ccc(-c3ncnc4[nH]c(C)c(C)c34)cc2)cc1` [P-0449, N-[4-(5,6-dimethyl-7H-pyrrolo[2,3-d]pyrimidin-4-yl)phenyl]-4-methyl-benzenesulfonamide]: the 50% inhibitory concentration (IC50) on c-kit mutant D816V and at c-kit kinase was 1 to 10 µM in each case.

On to `Cc1ccc(S(=O)(=O)Nc2ccc(-c3ncnc4[nH]c(C)nc34)cc2)cc1` [P-0450, 4-methyl-N-[4-(8-methyl-9H-purin-6-yl)phenyl]benzenesulfonamide], for which the IC50 lay within 1 to 10 µM at c-kit mutant D816V and 10 to 200 µM at c-kit kinase.

With `Cc1ccc(S(=O)(=O)NC2CCN(c3ncnc4[nH]c(-c5cnn(C)c5)cc34)CC2)cc1` [P-0451, 4-methyl-N-[1-[6-(1-methylpyrazol-4-yl)-7H-pyrrolo[2,3-d]pyrimidin-4-yl]-4-piperidyl]benzenesulfonamide], the IC50 lay within 0.0001 to 1 µM at c-kit mutant D816V and 1 to 10 µM at c-kit kinase.

Consider `Cn1cc(-c2cc3c(N4CCC(NS(=O)(=O)c5ccc6c(c5)CCC6)CC4)ncnc3[nH]2)cn1` [P-0452, N-[1-[6-(1-methylpyrazol-4-yl)-7H-pyrrolo[2,3-d]pyrimidin-4-yl]-4-piperidyl]indane-5-sulfonamide], for which the IC50 on c-kit mutant D816V lay within 0.0001 to 1 µM; on c-kit kinase, 1 to 10 µM.

Regarding `Cc1ccc(S(=O)(=O)NC2CCN(c3ncnc4[nH]c(-c5cnn(C)c5)cc34)CC2)s1` [P-0454, 5-methyl-N-[1-[6-(1-methylpyrazol-4-yl)-7H-pyrrolo[2,3-d]pyrimidin-4-yl]-4-piperidyl]thiophene-2-sulfonamide], the IC50 is 0.0001 to 1 µM at c-kit mutant D816V and 10 to 200 µM on c-kit kinase.

Take `Cc1ccc2sc(S(=O)(=O)NC3CCN(c4ncnc5[nH]c(-c6cnn(C)c6)cc45)CC3)cc2c1` [P-0455, 5-methyl-N-[1-[6-(1-methylpyrazol-4-yl)-7H-pyrrolo[2,3-d]pyrimidin-4-yl]-4-piperidyl]benzothiophene-2-sulfonamide]: the IC50 at c-kit mutant D816V was in the range of 0.0001 to 1 µM; on c-kit kinase it was 1 to 10 µM.

Take `Cn1cc(-c2cc3c(N4CCC(NS(=O)(=O)c5ccc6c(c5)CCO6)CC4)ncnc3[nH]2)cn1` [P-0457, N-[1-[6-(1-methylpyrazol-4-yl)-7H-pyrrolo[2,3-d]pyrimidin-4-yl]-4-piperidyl]-2,3-dihydrobenzofuran-5-sulfonamide]: the half-maximal inhibitory concentration (IC50) was in the range of 0.0001 to 1 µM at c-kit mutant D816V and 10 to 200 µM on c-kit kinase.

As for `Cn1cc(-c2cc3c(N4CCC(NS(=O)(=O)c5ccc(Cl)s5)CC4)ncnc3[nH]2)cn1` [P-0458, 5-chloro-N-[1-[6-(1-methylpyrazol-4-yl)-7H-pyrrolo[2,3-d]pyrimidin-4-yl]-4-piperidyl]thiophene-2-sulfonamide], the IC50 lay in the range of 0.0001 to 1 µM at c-kit mutant D816V and 10 to 200 µM at c-kit kinase.

As for `COc1cc(-c2cc3c(N4CCC(NS(=O)(=O)c5ccc(OC(F)(F)F)cc5)CC4)ncnc3[nH]2)ccn1` [P-0460, N-[1-[6-(2-methoxy-4-pyridyl)-7H-pyrrolo[2,3-d]pyrimidin-4-yl]-4-piperidyl]-4-(trifluoromethoxy)benzenesulfonamide], the IC50 on c-kit mutant D816V and on c-kit kinase was 10 to 200 µM each time.

For `Cn1cc(-c2cc3c(N4CCC(NS(=O)(=O)c5cc(Cl)c(Cl)s5)CC4)ncnc3[nH]2)cn1` [P-0461, 4,5-dichloro-N-[1-[6-(1-methylpyrazol-4-yl)-7H-pyrrolo[2,3-d]pyrimidin-4-yl]-4-piperidyl]thiophene-2-sulfonamide], the 50% inhibitory concentration (IC50) is 0.0001 to 1 µM on c-kit mutant D816V and 1 to 10 µM at c-kit kinase.

For `Cn1cc(-c2cc3c(N4CCC(NS(=O)(=O)c5cc(Cl)cs5)CC4)ncnc3[nH]2)cn1` [P-0462, 4-chloro-N-[1-[6-(1-methylpyrazol-4-yl)-7H-pyrrolo[2,3-d]pyrimidin-4-yl]-4-piperidyl]thiophene-2-sulfonamide], the IC50 was in the range of 0.0001 to 1 µM on c-kit mutant D816V and 1 to 10 µM at c-kit kinase.

Consider `COc1ncc(-c2cc3c(N4CCC(NS(=O)(=O)c5ccc(OC(F)(F)F)cc5)CC4)ncnc3[nH]2)cn1` [P-0465, N-[1-[6-(2-methoxypyrimidin-5-yl)-7H-pyrrolo[2,3-d]pyrimidin-4-yl]-4-piperidyl]-4-(trifluoromethoxy)benzenesulfonamide], for which the IC50 on c-kit mutant D816V and on c-kit kinase was 10 to 200 µM throughout.

As for `Cn1cc(-c2cc3c(N4CCC(NS(=O)(=O)c5cc6ccccc6s5)CC4)ncnc3[nH]2)cn1` [P-0470, N-[1-[6-(1-methylpyrazol-4-yl)-7H-pyrrolo[2,3-d]pyrimidin-4-yl]-4-piperidyl]benzothiophene-2-sulfonamide], the half-maximal inhibitory concentration (IC50) on c-kit mutant D816V and at c-kit kinase was 0.0001 to 1 µM each time.

With `Cn1cc(-c2cc3c(N4CCC(NS(=O)(=O)c5ccc(C6(C#N)CC6)cc5)CC4)ncnc3[nH]2)cn1` [P-0486, 4-(1-cyanocyclopropyl)-N-[1-[6-(1-methylpyrazol-4-yl)-7H-pyrrolo[2,3-d]pyrimidin-4-yl]-4-piperidyl]benzenesulfonamide], the IC50 on c-kit mutant D816V and at c-kit kinase was 1 to 10 µM in each case.

`CC(C)Oc1ccc(S(=O)(=O)NC2CCN(c3ncnc4[nH]c(-c5cnn(C)c5)cc34)CC2)cc1` [P-0488, 4-isopropoxy-N-[1-[6-(1-methylpyrazol-4-yl)-7H-pyrrolo[2,3-d]pyrimidin-4-yl]-4-piperidyl]benzenesulfonamide]: the IC50 at c-kit mutant D816V and at c-kit kinase was 0.0001 to 1 µM in each case.

`Cn1cc(-c2cc3c(N4CCC(NS(=O)(=O)c5ccc(Cl)cc5)CC4)ncnc3[nH]2)cn1` [P-0491, 4-chloro-N-[1-[6-(1-methylpyrazol-4-yl)-7H-pyrrolo[2,3-d]pyrimidin-4-yl]-4-piperidyl]benzenesulfonamide]: the figures for the half-maximal inhibitory concentration (IC50) on c-kit mutant D816V and at c-kit kinase were 0.0001 to 1 µM and 1 to 10 µM, respectively.

Consider `Cc1nc(-c2cccc(NC(=O)NC3CCN(c4ncnc5[nH]ccc45)CC3)c2)no1` [P-0507, 1-[3-(5-methyl-1,2,4-oxadiazol-3-yl)phenyl]-3-[1-(7H-pyrrolo[2,3-d]pyrimidin-4-yl)-4-piperidyl]urea], for which the IC50 at c-kit mutant D816V and on c-kit kinase was 10 to 200 µM each time.

As for `O=C(Nc1cccnc1)NC1CCN(c2ncnc3[nH]ccc23)CC1` [P-0508, 1-(3-pyridyl)-3-[1-(7H-pyrrolo[2,3-d]pyrimidin-4-yl)-4-piperidyl]urea], the 50% inhibitory concentration (IC50) at c-kit mutant D816V and on c-kit kinase was 10 to 200 µM each time.
